# Literature values in US20240034722A1, “PRETARGETING IMAGING AGENTS” (Eli Lilly and Company, priority 2020, published 2024).
# Tests used:
# [1] = wild type mice, dynamic PET, by 10 min post-injection; cited from earlier work
# ASO-TCO conjugate = conditions: rats given ASO-TCO intrathecally, tracer i.v. 24 and 168 hours later, static PET-CT 75-90 minutes after tracer; cited from earlier work
structure (smiles),measurement,setting,value
"O=C(Cc1ccc(-c2nncnn2)cc1)NCC[18F] [[^18F]537-Tz, 2-(4-(1,2,4,5-tetrazin-3-yl)phenyl)-N-(2-fluoroethyl)acetamide]",Brain uptake,[1],1.7±0.9 % ID
same,Radiotracer uptake in brain and spine relative to the control group,ASO-TCO conjugate,Higher radiotracer uptake
